Values joined by “and” are separate entries in the source; they are usually repeats but may differ in a detail not shown here. Equal values may be shown once. Inconclusive results and toxic doses are left out.
Test system: CD2F1 mice, L1210 leukemia ip, survival T/C
Assay: NCI In Vivo Anticancer Drug Screen. Data for tumor model L1210 Leukemia (intraperitoneal) in CD2F1 (CDF1) mice
Conditions: higher = longer survival
In short: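 Activity against a transplanted murine tumor was judged by comparing the compound group with a vehicle group. The outcome in the treated animals was divided by that in the controls.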

[1] = endpoint: mean survival time, dose: 12.5 mg/kg/injection, schedule: Q01DX009 (ip), vehicle: saline
[2] = endpoint: mean survival time, dose: 100.0 mg/kg/injection, schedule: Q04DX003 (ip), vehicle: saline
[3] = endpoint: mean survival time, dose: 100.0 mg/kg/injection, schedule: Q04DX003 (ip), vehicle: saline with Tween-80
[4] = endpoint: mean survival time, dose: 200.0 mg/kg/injection, schedule: Q04DX003 (ip), vehicle: saline with Tween-80
[5] = endpoint: mean survival time, dose: 12.5 mg/kg/injection, schedule: Q01DX009 (ip), vehicle: saline with Tween-80
[6] = endpoint: mean survival time, dose: 25.0 mg/kg/injection, schedule: Q01DX009 (ip), vehicle: saline with Tween-80
[7] = endpoint: mean survival time, dose: 50.0 mg/kg/injection, schedule: Q01DX009 (ip), vehicle: saline with Tween-80
[8] = endpoint: mean survival time, dose: 200.0 mg/kg/injection, schedule: Q01DX009 (ip), vehicle: saline with Tween-80
[9] = endpoint: mean survival time, dose: 3.13 mg/kg/injection, schedule: Q01DX009 (ip), vehicle: saline
[10] = endpoint: mean survival time, dose: 100.0 mg/kg/injection, schedule: Q01DX009 (ip), vehicle: saline with Tween-80
[11] = endpoint: mean survival time, dose: 100.0 mg/kg/injection, schedule: Q04DX002 (ip), vehicle: saline
[12] = endpoint: mean survival time, dose: 400.0 mg/kg/injection, schedule: Q01DX009 (ip), vehicle: saline with Tween-80
[13] = endpoint: mean survival time, dose: 100.0 mg/kg/injection, schedule: Q04DX002 (ip), vehicle: saline with Tween-80
[14] = endpoint: mean survival time, dose: 200.0 mg/kg/injection, schedule: Q04DX002 (ip), vehicle: saline with Tween-80

SMILES: CN(CO)c1nc(N(C)CO)nc(N(C)CO)n1
- T/C [1]: 106 % of control and 108 % of control
- T/C (endpoint: mean survival time, dose: 25.0 mg/kg/injection, schedule: Q01DX009 (ip), vehicle: saline): 105 % of control and 108 % of control
- T/C (endpoint: mean survival time, dose: 50.0 mg/kg/injection, schedule: Q01DX009 (ip), vehicle: saline): 118 % of control and 110 % of control
- T/C (endpoint: mean survival time, dose: 100.0 mg/kg/injection, schedule: Q01DX009 (ip), vehicle: saline): 117 % of control

SMILES: Cc1ccc(CS(=O)(=O)C(Cl)(Cl)c2ccc(C)cc2)cc1
- T/C (endpoint: mean survival time, dose: 100.0 mg/kg/injection, schedule: Q04DX003 (ip), vehicle: Klucel (hydroxypropylcellulose) (HPC)): 94 % of control
- T/C (endpoint: mean survival time, dose: 200.0 mg/kg/injection, schedule: Q04DX003 (ip), vehicle: Klucel (hydroxypropylcellulose) (HPC)): 100 % of control
- T/C (endpoint: mean survival time, dose: 400.0 mg/kg/injection, schedule: Q04DX003 (ip), vehicle: Klucel (hydroxypropylcellulose) (HPC)): 94 % of control

SMILES: CCCNC(=O)Nc1ccc(C(=O)OCC(C)C)cc1
- T/C [2]: 93 % of control
- T/C (endpoint: mean survival time, dose: 200.0 mg/kg/injection, schedule: Q04DX003 (ip), vehicle: saline): 95 % of control
- T/C (endpoint: mean survival time, dose: 400.0 mg/kg/injection, schedule: Q04DX003 (ip), vehicle: saline): 104 % of control

SMILES: CC(=O)Nc1ccn(C2OC(CO)C(O)C2O)c(=O)n1 (stereo not drawn)
- T/C (endpoint: mean survival time, dose: 12.5 mg/kg/injection, schedule: Q03HX024 (ip), vehicle: saline): 196 % of control
- T/C (endpoint: mean survival time, dose: 25.0 mg/kg/injection, schedule: Q03HX024 (ip), vehicle: saline): 274 % of control
- T/C (endpoint: mean survival time, dose: 37.5 mg/kg/injection, schedule: Q01DX008 (ip), vehicle: saline): 150 % of control
- T/C (endpoint: mean survival time, dose: 50.0 mg/kg/injection, schedule: Q03HX024 (ip), vehicle: saline): 257 % of control
- T/C (endpoint: mean survival time, dose: 50.0 mg/kg/injection, schedule: Q04DX003 (ip), vehicle: saline): 113 % of control
- T/C (endpoint: mean survival time, dose: 75.0 mg/kg/injection, schedule: Q01DX008 (ip), vehicle: saline): 160 % of control
- T/C [2]: 117 % of control
- T/C (endpoint: mean survival time, dose: 150.0 mg/kg/injection, schedule: Q01DX001 (ip), vehicle: saline): 106 % of control
- T/C (endpoint: mean survival time, dose: 150.0 mg/kg/injection, schedule: Q01DX008 (ip), vehicle: saline): 174 % of control
- T/C (endpoint: mean survival time, dose: 300.0 mg/kg/injection, schedule: Q01DX001 (ip), vehicle: saline): 107 % of control
- T/C (endpoint: mean survival time, dose: 600.0 mg/kg/injection, schedule: Q01DX001 (ip), vehicle: saline): 107 % of control
- T/C (endpoint: mean survival time, dose: 1200.0 mg/kg/injection, schedule: Q01DX001 (ip), vehicle: saline): 104 % of control

SMILES: Cc1ccc(-n2c(O)c(C=N)c(=O)[nH]c2=O)cc1
- T/C [3]: 101 % of control
- T/C [4]: 97 % of control
- T/C (endpoint: mean survival time, dose: 400.0 mg/kg/injection, schedule: Q04DX003 (ip), vehicle: saline with Tween-80): 103 % of control

SMILES: O=C(CN1CC1)NCCCCCCCCNC(=O)CN1CC1
- T/C (endpoint: mean survival time, dose: 4.4 mg/kg/injection, schedule: Q01DX009 (ip), vehicle: carboxymethylcellulose (CMC)): 116 % of control
- T/C (endpoint: mean survival time, dose: 6.6 mg/kg/injection, schedule: Q01DX009 (ip), vehicle: carboxymethylcellulose (CMC)): 122 % of control
- T/C (endpoint: mean survival time, dose: 22.0 mg/kg/injection, schedule: Q01DX001 (ip), vehicle: carboxymethylcellulose (CMC)): 120 % of control
- T/C (endpoint: mean survival time, dose: 33.0 mg/kg/injection, schedule: Q01DX001 (ip), vehicle: carboxymethylcellulose (CMC)): 123 % of control

SMILES: CC(=O)Nc1ccc(OCCOC(=O)Nc2ccc(Cl)cc2C)cc1
- T/C [5]: 98 % of control
- T/C [6]: 95 % of control
- T/C [7]: 95 % of control and 96 % of control
- T/C [8]: 92 % of control

SMILES: COc1ccc(N=C(C)C2C(=O)c3ccccc3C2=O)cc1
- T/C (endpoint: median survival time, dose: 50.0 mg/kg/injection, schedule: Q01DX005 (ip), vehicle: DMSO): 101 % of control
- T/C (endpoint: median survival time, dose: 100.0 mg/kg/injection, schedule: Q01DX005 (ip), vehicle: DMSO): 101 % of control
- T/C (endpoint: median survival time, dose: 200.0 mg/kg/injection, schedule: Q01DX005 (ip), vehicle: DMSO): 103 % of control
- T/C (endpoint: median survival time, dose: 400.0 mg/kg/injection, schedule: Q01DX005 (ip), vehicle: DMSO): 103 % of control
- T/C (endpoint: median survival time, dose: 800.0 mg/kg/injection, schedule: Q01DX005 (ip), vehicle: DMSO): 101 % of control

SMILES: C/C=C/C[P+](Cc1ccccc1)(c1ccccc1)c1ccccc1
- T/C (endpoint: mean survival time, dose: 0.39 mg/kg/injection, schedule: Q01DX009 (ip), vehicle: saline): 97 % of control
- T/C (endpoint: mean survival time, dose: 0.78 mg/kg/injection, schedule: Q01DX009 (ip), vehicle: saline): 96 % of control
- T/C (endpoint: mean survival time, dose: 1.56 mg/kg/injection, schedule: Q01DX009 (ip), vehicle: saline): 102 % of control
- T/C [9]: 103 % of control

SMILES: COc1ccc(C(O)C#N)cc1O (stereo not drawn)
- T/C [9]: 101 % of control
- T/C (endpoint: mean survival time, dose: 6.25 mg/kg/injection, schedule: Q01DX009 (ip), vehicle: saline): 103 % of control
- T/C (endpoint: mean survival time, dose: 6.25 mg/kg/injection, schedule: Q04DX003 (ip), vehicle: saline): 101 % of control
- T/C [1]: 101 % of control
- T/C (endpoint: mean survival time, dose: 12.5 mg/kg/injection, schedule: Q04DX003 (ip), vehicle: saline): 106 % of control

SMILES: C/C=C/C(OC(C)=O)OC(C)=O
- T/C [10]: 97 % of control
- T/C [8]: 103 % of control

SMILES: Cc1cc(=O)ncn1C
- T/C [11]: 101 % of control
- T/C (endpoint: mean survival time, dose: 200.0 mg/kg/injection, schedule: Q04DX002 (ip), vehicle: saline): 97 % of control
- T/C (endpoint: mean survival time, dose: 400.0 mg/kg/injection, schedule: Q04DX002 (ip), vehicle: saline): 101 % of control

SMILES: CCN(CC)C(=O)CS(=O)(=O)c1ccc(C)cc1
- T/C [10]: 100 % of control
- T/C [8]: 100 % of control
- T/C [12]: 101 % of control

SMILES: CC/C=C(\CC)C(=O)O
- T/C [7]: 109 % of control
- T/C [10]: 105 % of control
- T/C [8]: 105 % of control

SMILES: COC(C(OC)N1CCOCC1)N1CCOCC1 (stereo not drawn)
- T/C [3]: 89 % of control
- T/C [4]: 89 % of control

SMILES: CC(C)(COCc1ccccc1)COP(N)(=O)N(CCCl)CCCl (stereo not drawn)
- T/C (endpoint: mean survival time, dose: 25.0 mg/kg/injection, schedule: Q01DX001 (ip), vehicle: other): 102 % of control
- T/C (endpoint: mean survival time, dose: 50.0 mg/kg/injection, schedule: Q01DX001 (ip), vehicle: other): 93 % of control
- T/C (endpoint: mean survival time, dose: 100.0 mg/kg/injection, schedule: Q01DX001 (ip), vehicle: other): 87 % of control
- T/C (endpoint: mean survival time, dose: 200.0 mg/kg/injection, schedule: Q01DX001 (ip), vehicle: other): 96 % of control
- T/C (endpoint: mean survival time, dose: 400.0 mg/kg/injection, schedule: Q01DX001 (ip), vehicle: other): 98 % of control

SMILES: O=C(O)CCCCCCC(=O)c1ccccc1
- T/C [10]: 98 % of control
- T/C [8]: 97 % of control
- T/C [12]: 93 % of control

SMILES: Nc1ccn(C2CC(O)C(CO)C2)c(=O)n1 (stereo not drawn)
- T/C (endpoint: mean survival time, dose: 100.0 mg/kg/injection, schedule: Q01DX001 (ip), vehicle: saline): 100 % of control
- T/C (endpoint: mean survival time, dose: 200.0 mg/kg/injection, schedule: Q01DX001 (ip), vehicle: saline): 105 % of control
- T/C (endpoint: mean survival time, dose: 400.0 mg/kg/injection, schedule: Q01DX001 (ip), vehicle: saline): 97 % of control

SMILES: CN(C)CC(C)(C)C(=O)c1ccccc1
- T/C [11]: 93 % of control

SMILES: CC1(C)N=C(N)N=C(N)N1c1cccc(CCCCOc2ccccc2)c1
- T/C (endpoint: mean survival time, dose: 6.25 mg/kg/injection, schedule: Q01DX009 (ip), vehicle: saline with Tween-80): 101 % of control
- T/C [5]: 111 % of control
- T/C [6]: 108 % of control

SMILES: CN(C)C(=O)Nc1ccc(F)cc1
- T/C [13]: 97 % of control
- T/C [14]: 102 % of control
- T/C (endpoint: mean survival time, dose: 400.0 mg/kg/injection, schedule: Q04DX002 (ip), vehicle: saline with Tween-80): 91 % of control

SMILES: Cc1cccc2c(CBr)cc(=O)[nH]c12
- T/C (endpoint: mean survival time, dose: 12.5 mg/kg/injection, schedule: Q04DX003 (ip), vehicle: saline with Tween-80): 101 % of control
- T/C (endpoint: mean survival time, dose: 25.0 mg/kg/injection, schedule: Q04DX003 (ip), vehicle: saline with Tween-80): 101 % of control
- T/C (endpoint: mean survival time, dose: 50.0 mg/kg/injection, schedule: Q04DX003 (ip), vehicle: saline with Tween-80): 101 % of control

SMILES: c1ccc(N(c2ccccn2)c2ccccn2)nc1
- T/C (endpoint: mean survival time, dose: 25.0 mg/kg/injection, schedule: Q04DX002 (ip), vehicle: saline with Tween-80): 101 % of control
- T/C (endpoint: mean survival time, dose: 50.0 mg/kg/injection, schedule: Q04DX002 (ip), vehicle: saline with Tween-80): 101 % of control
- T/C [13]: 97 % of control
- T/C [14]: 97 % of control

SMILES: CN(C)P(=O)(OP(=O)(N(C)C)N(C)C)N(C)C
- T/C (endpoint: mean survival time, dose: 2.0 mg/kg/injection, schedule: Q04DX003 (ip), vehicle: saline): 102 % of control
- T/C (endpoint: mean survival time, dose: 4.0 mg/kg/injection, schedule: Q04DX003 (ip), vehicle: saline): 98 % of control
- T/C (endpoint: mean survival time, dose: 8.0 mg/kg/injection, schedule: Q04DX003 (ip), vehicle: saline): 100 % of control

SMILES: CC(=O)ON1C(=O)c2cccc3cccc(c23)C1=O
- T/C [7]: 96 % of control
- T/C [10]: 102 % of control

SMILES: CCCCOC(=O)c1ccccn1
- T/C [7]: 101 % of control
- T/C [10]: 95 % of control
- T/C [8]: 98 % of control
